Reference: US20070276011A1, “Plasminogen Activator Inhibitor-1 Inhibitor” (priority 2003, published 2007)

Molecular target: recombinant human PAI-1 (Homo sapiens, UniProt P05121)
Experiment: PAI-1 inhibitory activity, Test Method A (tPA fluorogenic substrate, Tris buffer pH8.0, 37 C)
Format: biochemical
Details: 25 μM test compound; Test Method A

Chain of recombinant human PAI-1 (P05121 24-402): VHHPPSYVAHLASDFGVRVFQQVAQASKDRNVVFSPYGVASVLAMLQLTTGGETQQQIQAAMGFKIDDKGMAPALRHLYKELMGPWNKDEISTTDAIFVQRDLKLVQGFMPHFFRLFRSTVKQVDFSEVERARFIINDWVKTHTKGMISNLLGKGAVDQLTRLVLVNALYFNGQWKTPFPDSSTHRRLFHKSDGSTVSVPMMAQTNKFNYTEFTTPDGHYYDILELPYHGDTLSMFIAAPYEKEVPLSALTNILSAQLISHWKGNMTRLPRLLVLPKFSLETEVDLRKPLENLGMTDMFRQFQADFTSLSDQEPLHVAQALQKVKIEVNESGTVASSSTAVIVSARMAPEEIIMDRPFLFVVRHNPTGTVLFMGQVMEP

Inhibitory Ratio at 25 μM (%)	Structure (SMILES)
64	COc1ccc(NC(=O)c2cc(C=C3SC(=O)N(Cc4ccc(Cl)c(Cl)c4)C3=O)ccc2O)cc1OC [compound 432, 5-[4-hydroxy-3-(3,4-dimethoxyphenylcarbamoyl)benzylidene]-3-(3,4-dichlorobenzyl)thiazolidine-2,4-dione]
>99	COc1cc(NC(=O)c2cc(C=C3SC(=O)N(Cc4ccc(Cl)c(Cl)c4)C3=O)ccc2O)cc(OC)c1OC [compound 433, 5-[4-hydroxy-3-(3,4,5-trimethoxyphenylcarbamoyl)benzylidene]-3-(3,4-dichlorobenzyl)thiazolidine-2,4-dione]
>99	COc1cccc(NC(=O)c2cc(C=C3SC(=O)N(Cc4ccc(Cl)c(Cl)c4)C3=O)ccc2O)c1OC [compound 434, 5-[4-hydroxy-3-(2,3-dimethoxyphenylcarbamoyl)benzylidene]-3-(3,4-dichlorobenzyl)thiazolidine-2,4-dione]
69	COC(=O)c1ccc(NC(=O)c2cc(C=C3SC(=O)N(Cc4ccc(Cl)c(Cl)c4)C3=O)ccc2O)cc1O [compound 437]
>99	O=C(O)c1c(O)cc(C=C2SC(=O)N(Cc3ccc(Cl)c(Cl)c3)C2=O)cc1O [compound 446]
51	COc1ccc(-c2cc(C=C3SC(=O)N(Cc4ccc(Cl)c(Cl)c4)C3=O)ccc2OC)cc1 [compound 448, 5-[4-Methoxy-3-(4-methoxyphenyl)benzylidene]-3-(3,4-dichlorobenzyl)thiazolidine-2,4-dione]
>99	O=C1SC(=Cc2ccc(O)c(-c3c(O)cccc3O)c2)C(=O)N1Cc1ccc(Cl)c(Cl)c1 [compound 449]
87	COc1ccc(C)c(NC(=O)c2cc(C=C3SC(=O)N(Cc4ccc(Cl)c(Cl)c4)C3=O)ccc2O)c1 [compound 450, 5-[4-hydroxy-3-(2-methyl-5-methoxyphenylcarbamoyl)-benzylidene]-3-(3,4-dichlorobenzyl)thiazolidine-2,4-dione]
>99	COc1cc(NC(=O)c2cc(C=C3SC(=O)N(Cc4ccc(Cl)c(Cl)c4)C3=O)ccc2O)cc(C(F)(F)F)c1 [compound 451, 5-{4-hydroxy-3-[3-methoxy-5-(trifluoromethyl)phenylcarbamoyl]-benzylidene}-3-(3,4-dichlorobenzyl)thiazolidine-2,4-dione]
>99	COc1ccc(C)cc1NC(=O)c1cc(C=C2SC(=O)N(Cc3ccc(Cl)c(Cl)c3)C2=O)ccc1O [compound 452, 5-[4-hydroxy-3-(2-methoxy-5-methylphenylcarbamoyl)-benzylidene]-3-(3,4-dichlorobenzyl)thiazolidine-2,4-dione]
>99	COC(=O)c1ccc(Cl)cc1NC(=O)c1cc(C=C2SC(=O)N(Cc3ccc(Cl)c(Cl)c3)C2=O)ccc1O [compound 453, 5-[4-hydroxy-3-(2-methoxycarbonyl-5-chlorophenylcarbamoyl)-benzylidene]-3-(3,4-dichlorobenzyl)thiazolidine-2,4-dione]
>99	COc1ccc(Cl)cc1NC(=O)c1cc(C=C2SC(=O)N(Cc3ccc(Cl)c(Cl)c3)C2=O)ccc1O [compound 454]
>99	COc1ccc(-c2ccccc2)cc1NC(=O)c1cc(C=C2SC(=O)N(Cc3ccc(Cl)c(Cl)c3)C2=O)ccc1O [compound 455]
83	Cc1ccc(O)cc1NC(=O)c1cc(C=C2SC(=O)N(Cc3ccc(Cl)c(Cl)c3)C2=O)ccc1O [compound 456]
>99	Cc1ccc(O)c(NC(=O)c2cc(C=C3SC(=O)N(Cc4ccc(Cl)c(Cl)c4)C3=O)ccc2O)c1 [compound 457]
>99	O=C(Nc1cc(Cl)ccc1C(=O)O)c1cc(C=C2SC(=O)N(Cc3ccc(Cl)c(Cl)c3)C2=O)ccc1O [compound 458]
>99	O=C(Nc1cc(O)cc(C(F)(F)F)c1)c1cc(C=C2SC(=O)N(Cc3ccc(Cl)c(Cl)c3)C2=O)ccc1O [compound 459]
57	O=C(Nc1cccc2c1OC(F)(F)O2)c1cc(C=C2SC(=O)N(Cc3ccc(Cl)c(Cl)c3)C2=O)ccc1O [compound 460]
>99	O=C(OCc1ccccc1)c1cc(C=C2SC(=O)N(Cc3ccc(Cl)c(Cl)c3)C2=O)cc(O)c1O [compound 463, 5-[3,4-Dihydroxy-5-(benzyloxycarbonyl)benzylidene]-3-(3,4-dichlorobenzyl)thiazolidine-2,4-dione]
>99	O=C(O)c1cc(C=C2SC(=O)N(Cc3ccc(Cl)c(Cl)c3)C2=O)cc(O)c1O [compound 464, 5-(3,4-dihydroxy-5-carboxybenzylidene)-3-(3,4-dichlorobenzyl)-thiazolidine-2,4-dione]
69	O=C(Nc1cc(F)ccc1F)c1cc(C=C2SC(=O)N(Cc3ccc(Cl)c(Cl)c3)C2=O)ccc1O [compound 465]

Second part, the molecule before the results:

Structure (SMILES)	Inhibitory Ratio at 25 μM (%)
COc1ccc(NC(=O)c2cc(C=C3SC(=O)N(Cc4ccc(Cl)c(Cl)c4)C3=O)ccc2O)cn1 [compound 407, 5-{4-hydroxy-3-[(2-methoxypyridin-5-yl)carbamoyl]benzylidene}-3-(3,4-dichlorobenzyl)thiazolidine-2,4-dione]	97
O=C(Nc1ccc(O)nc1)c1cc(C=C2SC(=O)N(Cc3ccc(Cl)c(Cl)c3)C2=O)ccc1O [compound 408]	>99
O=C1SC(=Cc2c[nH]c3ccccc23)C(=O)N1Cc1ccc(Cl)c(Cl)c1 [compound 410, 5-(indol-3-ylmethylene)-3-(3,4-dichlorobenzyl)thiazolidine-2,4-dione]	36
O=C1SC(=Cc2cn(Cc3ccc(OCc4ccccc4)c(OCc4ccccc4)c3)c3ccccc23)C(=O)N1Cc1ccc(Cl)c(Cl)c1 [compound 411, 5-[1-(3,4-dibenzyloxybenzyl)indol-3-ylmethylene]-3-(3,4-dichlorobenzyl)thiazolidine-2,4-dione]	95
O=C(Nc1cccc(OC(F)(F)F)c1)c1cc(C=C2SC(=O)N(Cc3ccc(Cl)c(Cl)c3)C2=O)ccc1O [compound 414]	91
COC(=O)c1ccc(CN2C(=O)SC(=Cc3ccc(O)c(C(=O)Nc4ccc(Cl)c(Cl)c4)c3)C2=O)cc1 [compound 415, 5-[4-hydroxy-3-(3,4-dichlorophenylcarbamoyl)benzylidene]-3-(4-methoxycarbonylbenzyl)thiazolidine-2,4-dione]	>99
COC(=O)c1ccc(NC(=O)c2cc(C=C3SC(=O)N(Cc4ccc(Cl)c(Cl)c4)C3=O)ccc2O)cc1 [compound 416, 5-{4-hydroxy-3-[4-(methoxycarbonyl)phenylcarbamoyl]benzylidene}-3-(3,4-dichlorobenzyl)thiazolidine-2,4-dione]	73
COC(=O)c1cccc(NC(=O)c2cc(C=C3SC(=O)N(Cc4ccc(Cl)c(Cl)c4)C3=O)ccc2O)c1 [compound 417, 5-{4-hydroxy-3-[3-(methoxycarbonyl)phenylcarbamoyl]benzylidene}-3-(3,4-dichlorobenzyl)thiazolidine-2,4-dione]	59
O=C(O)c1ccc(CN2C(=O)SC(=Cc3ccc(O)c(C(=O)Nc4ccc(Cl)c(Cl)c4)c3)C2=O)cc1 [compound 418]	80
O=C(O)c1ccc(NC(=O)c2cc(C=C3SC(=O)N(Cc4ccc(Cl)c(Cl)c4)C3=O)ccc2O)cc1 [compound 419]	>99
O=C(O)c1cccc(NC(=O)c2cc(C=C3SC(=O)N(Cc4ccc(Cl)c(Cl)c4)C3=O)ccc2O)c1 [compound 420]	85
COc1ccc(Oc2ccc(C(F)(F)F)cc2NC(=O)c2cc(C=C3SC(=O)N(Cc4cccc(Oc5ccccc5)c4)C3=O)ccc2O)cc1 [compound 421, 5-(4-hydroxy-3-{[2-(4-methoxyphenoxy)-5-(trifluoromethyl)-phenyl]carbamoyl}benzylidene)-3-(3-phenoxybenzyl)thiazolidine-2,4-dione]	>99
O=C(Nc1cc(C(F)(F)F)ccc1Oc1ccc(O)cc1)c1cc(C=C2SC(=O)N(Cc3ccc(Cl)c(Cl)c3)C2=O)ccc1O [compound 422]	95
O=C(Nc1cccc([N+](=O)[O-])c1)c1cc(C=C2SC(=O)N(Cc3ccc(Cl)c(Cl)c3)C2=O)ccc1O [compound 424]	87
O=C(OCc1ccccc1)c1cc(C=C2SC(=O)N(Cc3ccc(Cl)c(Cl)c3)C2=O)cc(-c2ccccc2)c1O [compound 426, 5-[3-Phenyl-4-hydroxy-5-(benzyloxycarbonyl)benzylidene]-3-(3,4-dichlorobenzyl)thiazolidine-2,4-dione]	91
COC(=O)c1ccc(C(=O)n2cc(C=C3SC(=O)N(Cc4ccc(Cl)c(Cl)c4)C3=O)c3ccccc32)cc1 [compound 427]	85
O=C(Nc1ccc2c(c1)OCO2)c1cc(C=C2SC(=O)N(Cc3ccc(Cl)c(Cl)c3)C2=O)ccc1O [compound 428]	86
COC(=O)c1cc(C=C2SC(=O)N(Cc3ccc(Cl)cc3Cl)C2=O)cc(OC)c1O [compound 429]	83
O=C(O)c1cc(C=C2SC(=O)N(Cc3ccc(Cl)c(Cl)c3)C2=O)cc(-c2ccccc2)c1O [compound 430]	87
COc1cc(C=C2SC(=O)N(Cc3ccc(Cl)c(Cl)c3)C2=O)cc(C(=O)Nc2cc(C(F)(F)F)cc(C(F)(F)F)c2)c1O [compound 438]	>99
COc1cc(C=C2SC(=O)N(Cc3ccc(Cl)c(Cl)c3)C2=O)cc(C(=O)Nc2cc(C(F)(F)F)ccc2Cl)c1O [compound 439]	89
COc1cc(C=C2SC(=O)N(Cc3ccc(Cl)c(Cl)c3)C2=O)cc(C(=O)Nc2ccccc2)c1O [compound 440]	82
O=C(Nc1cc(C(F)(F)F)ccc1F)c1cc(C=C2SC(=O)N(Cc3ccc(Cl)c(Cl)c3)C2=O)ccc1O [compound 442]	58
O=C1SC(=Cc2ccc(O)c(-c3ccc(O)c(O)c3)c2)C(=O)N1Cc1ccc(Cl)c(Cl)c1 [compound 445]	>99
O=C(Nc1cc(C(F)(F)F)ccc1[N+](=O)[O-])c1cc(C=C2SC(=O)N(Cc3ccc(Cl)c(Cl)c3)C2=O)ccc1O [compound 466]	>99
